IC50 and Ki data for 1 compound are collected here from ChEMBL document CHEMBL1141120, “Structure-based design and discovery of protein tyrosine phosphatase inhibitors incorporating novel isothiazolidinone heterocyclic phosphotyrosine mimetics” (J Med Chem, 2005).

In test [1] the target is T1, Tyrosine-protein phosphatase non-receptor type 1 (Homo sapiens, UniProt P18031).
T1 sequence (P18031 whole entry): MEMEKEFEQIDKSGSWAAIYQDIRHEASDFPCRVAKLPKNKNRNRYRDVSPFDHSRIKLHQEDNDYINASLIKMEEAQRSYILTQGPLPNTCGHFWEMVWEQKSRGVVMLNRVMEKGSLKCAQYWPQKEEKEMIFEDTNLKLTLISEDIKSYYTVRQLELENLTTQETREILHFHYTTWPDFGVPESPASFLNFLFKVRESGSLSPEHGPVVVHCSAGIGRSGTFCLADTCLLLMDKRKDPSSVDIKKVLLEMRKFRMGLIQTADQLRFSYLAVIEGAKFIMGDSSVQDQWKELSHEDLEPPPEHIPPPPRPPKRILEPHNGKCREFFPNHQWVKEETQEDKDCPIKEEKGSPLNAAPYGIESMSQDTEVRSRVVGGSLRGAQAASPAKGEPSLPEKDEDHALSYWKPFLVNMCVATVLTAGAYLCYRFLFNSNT
Description: Inhibitory concentration against protein-tyrosine phosphatase.

In test [2] the target is T2, Tyrosine-protein phosphatase non-receptor type 2 (Homo sapiens, UniProt P17706).
T2 sequence (P17706 whole entry): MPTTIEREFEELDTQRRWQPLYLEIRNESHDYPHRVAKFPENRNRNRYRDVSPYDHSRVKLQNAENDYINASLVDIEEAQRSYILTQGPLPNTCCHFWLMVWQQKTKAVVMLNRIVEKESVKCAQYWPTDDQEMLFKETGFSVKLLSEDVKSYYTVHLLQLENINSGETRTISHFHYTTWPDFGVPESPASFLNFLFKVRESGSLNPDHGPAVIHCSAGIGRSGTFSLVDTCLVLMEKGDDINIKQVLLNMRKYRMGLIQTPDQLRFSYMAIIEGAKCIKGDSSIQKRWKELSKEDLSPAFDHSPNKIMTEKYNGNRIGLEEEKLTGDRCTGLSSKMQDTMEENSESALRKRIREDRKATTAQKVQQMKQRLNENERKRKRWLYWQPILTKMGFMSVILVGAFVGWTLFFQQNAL
Description: Inhibitory concentration against T cell protein tyrosine phosphatase.

The target of test [3] is T1, Tyrosine-protein phosphatase non-receptor type 1. Description: Inhibition constant against protein-tyrosine phosphatase 1B by PNPP enzyme assay.

The structures appear in SMILES notation.

Consider `CC(=O)N[C@@H](Cc1ccccc1)C(=O)N[C@@H](Cc1ccc([C@@H]2CC(=O)NS2(=O)=O)cc1)C(N)=O`, for which the IC50 in test [1] is above 100 µM; in test [2], 0.135 µM. The Ki in test [3] turned out to be 0.18 µM.
